Assay results as given in patent publication US9913873B2, “Turmeric extract containing soft pastilles” (priority 2013, dated 2018).

Assay: Preliminary finding on bioavailability of pure curcumin

Bioavailability: poor
Compound: COc1cc(/C=C/C(=O)CC(=O)/C=C/c2ccc(O)c(OC)c2)ccc1O [Curcumin]
